In brackets after ≈: the same amount, converted by molar mass. Several values for one entry are separate records, joined by “and”; a condition that tells them apart may be missing. Identical values can stand only once.
Key:
E. coli W3110 = experiment: MIC by broth microdilution; type: cell-based, Escherichia coli
Protocol: (§1) MIC was determined by broth microdilution. Single-colony cultures were grown to exponential phase (OD600 of 0.5) aerobically at 37 °C. In case of strains from the Keio collection, 50 µg ml^−1 kanamycin was supplemented to the media to ascertain a homogeneous population. The bacterial suspensions were diluted 100-fold in CAMHB and 50 µl was added to a twofold serial dilution series of test compounds (50 µl per well) in polypropylene 96-well microtitre plates to reach a volume of 100 µl. The plates were sealed with breathable membranes and incubated overnight at 37 °C with constant shaking (600 r.p.m.).

HEK293T = experiment: Cytotoxicity assay (MTT); type: cell-based, human; settings: for MTT data (raw readout): HEK293T
Protocol: (§2) HepG2 (ATCC HB-8065) and HEK293T (ATCC CRL-3216) cell lines were cultured at 37 °C and 7% CO2 in Dulbecco’s modified Eagle medium (Sigma-Aldrich, D6546) with GlutaMax, penicillin (100 µg ml^−1), streptomycin (100 µg ml^−1) and 10% fetal calf serum. Cells were passaged twice a week by first detaching using 0.05% trypsin in phosphate-buffered saline (PBS) and then diluting to appropriate confluence. Compound cytotoxicity was evaluated using the standard (3-(4,5-dimethylthiazol-2-yl)-2,5-diphenyltetrazolium bromide (MTT) assay protocol (MTT assay protocol for cell viability and proliferation, Merck) with slight changes. HepG2 and HEK293T cells were seeded at a density of 1.5 × 10^4 cells per well in a clear 96-well tissue culture treated plate in a final volume of 100 µl in Dulbecco’s modified Eagle medium, supplemented with fetal bovine serum (1%), GlutaMax and penicillin/streptomycin. Cells were incubated for 24 h at 37 °C, 7% CO2 to allow cells to attach to the plates. […] Incubation was done for 24 h at 37 °C, 7% CO2. After the incubation, MTT was added to each well at a final concentration of 0.40 mg ml^−1. The plates were then incubated for 2 h at 37 °C, 7% CO2. Medium was carefully removed via suction, and purple formazan crystals were resuspended in 100 µl DMSO. Absorbance was read at 570 nm using a Clariostar plate reader with MARS (V4.20). The data were then analysed with GraphPad Prism software. IC50 values were calculated using non-linear fitted curve with variable slope settings, with values adjusted for background (plotted absorbance (ABS)sample = (ABSsample – ABSbackground) / (ABSvehicle – ABSbackground)). Technical triplicates for each condition were used, along with biological duplicates.

HepG2 = experiment: Cytotoxicity assay (MTT); type: cell-based, human
Protocol: as §2

K. pneumoniae ATCC 29665 = experiment: MIC by broth microdilution; type: cell-based, Klebsiella pneumoniae; settings: Klebsiella pneumoniae, ATCC29665, broth microdilution; read-out: MIC K. pneumoniae ATCC 29665
Protocol: as §1

For `O=S(=O)(NCCNCc1ccc(-c2ccsc2)cc1)c1cccc2cnccc12` [Compound 57], the MIC (E. coli W3110; Escherichia coli, W3110, WT, broth microdilution, read-out: MIC E. coli W3110) was 6.25 µM (≈ 2.65 µg/mL), the “antimicrobial activity” value (E. coli W3110; relative to parent compound) was “equally potent” and the “MTT data (raw readout)” value (HEK293T; 0.023 uM, experiment n = 1, technical triplicates) was 0.793 and 0.726 and 0.620. The “MTT data (raw readout)” value (HEK293T; 0.023 uM, experiment n = 2, technical triplicates) was 0.807 and 0.803 and 0.611, the “MTT data (raw readout)” value (HEK293T; 0.068 uM, experiment n = 1, technical triplicates) was 0.732 and 0.738 and 0.650 and the “MTT data (raw readout)” value (HEK293T; 0.068 uM, experiment n = 2, technical triplicates) was 0.765 and 0.761 and 0.569. For the same compound, the “MTT data (raw readout)” value (HEK293T; 0.21 uM, experiment n = 1, technical triplicates) was 0.722 and 0.771 and 0.628, the “MTT data (raw readout)” value (HEK293T; 0.21 uM, experiment n = 2, technical triplicates) was 0.825 and 0.737 and 0.605 and the “MTT data (raw readout)” value (HEK293T; 0.62 uM, experiment n = 1, technical triplicates) was 0.689 and 0.691 and 0.563. For the same compound, the “MTT data (raw readout)” value (HEK293T; 0.62 uM, experiment n = 2, technical triplicates) was 0.748 and 0.715 and 0.545, the “MTT data (raw readout)” value (HEK293T; 1.85 uM, experiment n = 1, technical triplicates) was 0.625 and 0.610 and 0.502 and the “MTT data (raw readout)” value (HEK293T; 1.85 uM, experiment n = 2, technical triplicates) was 0.678 and 0.632 and 0.506. The “MTT data (raw readout)” value (HEK293T; 5.6 uM, experiment n = 1, technical triplicates) was 0.490 and 0.501 and 0.402, the “MTT data (raw readout)” value (HEK293T; 5.6 uM, experiment n = 2, technical triplicates) was 0.448 and 0.475 and 0.377 and the “MTT data (raw readout)” value (HEK293T; 16.7 uM, experiment n = 1, technical triplicates) was 0.253 and 0.231 and 0.202. For the same compound, the “MTT data (raw readout)” value (HEK293T; 16.7 uM, experiment n = 2, technical triplicates) was 0.296 and 0.267 and 0.213, the “MTT data (raw readout)” value (HEK293T; 50 uM, experiment n = 1, technical triplicates) was 0.051 and 0.066 and 0.048 and the “MTT data (raw readout)” value (HEK293T; 50 uM, experiment n = 2, technical triplicates) was 0.078 and 0.094 and 0.056. For the same compound, the IC50 (HEK293T; Homo sapiens, HEK-293T, 24 h, MTT) was 6.6 µM, the “MTT data (raw readout)” value (HepG2; HepG2, 0.023 uM, experiment n = 1, technical triplicates) was 0.512 and 0.502 and 0.507 and the “MTT data (raw readout)” value (HepG2; HepG2, 0.023 uM, experiment n = 2, technical triplicates) was 0.479 and 0.518 and 0.476. The “MTT data (raw readout)” value (HepG2; HepG2, 0.068 uM, experiment n = 1, technical triplicates) was 0.477 and 0.445 and 0.510, the “MTT data (raw readout)” value (HepG2; HepG2, 0.068 uM, experiment n = 2, technical triplicates) was 0.538 and 0.507 and 0.588 and the “MTT data (raw readout)” value (HepG2; HepG2, 0.21 uM, experiment n = 1, technical triplicates) was 0.485 and 0.473 and 0.497. The “MTT data (raw readout)” value (HepG2; HepG2, 0.21 uM, experiment n = 2, technical triplicates) was 0.529 and 0.523 and 0.494, the “MTT data (raw readout)” value (HepG2; HepG2, 0.62 uM, experiment n = 1, technical triplicates) was 0.426 and 0.445 and 0.470 and the “MTT data (raw readout)” value (HepG2; HepG2, 0.62 uM, experiment n = 2, technical triplicates) was 0.529 and 0.507 and 0.472. The “MTT data (raw readout)” value (HepG2; HepG2, 1.85 uM, experiment n = 1, technical triplicates) was 0.360 and 0.379 and 0.361, the “MTT data (raw readout)” value (HepG2; HepG2, 1.85 uM, experiment n = 2, technical triplicates) was 0.404 and 0.395 and 0.409 and the “MTT data (raw readout)” value (HepG2; HepG2, 5.6 uM, experiment n = 1, technical triplicates) was 0.268 and 0.278 and 0.299. The “MTT data (raw readout)” value (HepG2; HepG2, 5.6 uM, experiment n = 2, technical triplicates) was 0.322 and 0.303 and 0.267, the “MTT data (raw readout)” value (HepG2; HepG2, 16.7 uM, experiment n = 1, technical triplicates) was 0.206 and 0.230 and 0.232 and the “MTT data (raw readout)” value (HepG2; HepG2, 16.7 uM, experiment n = 2, technical triplicates) was 0.246 and 0.259. For the same compound, the “MTT data (raw readout)” value (HepG2; HepG2, 50 uM, experiment n = 2, technical triplicates) was 0.039 and 0.047 and 0.038, the IC50 (HepG2; Homo sapiens, HepG2, 24 h, MTT, 24 h) was 8.2 µM and the MIC (K. pneumoniae ATCC 29665) was 12.5 µM (≈ 5.29 µg/mL).

— paper PMC11374673, “Discovery of isoquinoline sulfonamides as allosteric gyrase inhibitors with activity against fluoroquinolone-resistant bacteria” (Nature Chemistry, 2024)
